# ChEMBL document CHEMBL4257485, “The critical role of novel benzophenone analogs on tumor growth inhibition targeting angiogenesis and apoptosis” (Medchemcomm, 2018)
# Activity calls are given as the source filed them. No cut-off for these calls is given here.
# How the values were obtained:
# NIH3T3 [1] = assay: Cytotoxicity against mouse NIH/3T3 cells after 48 hrs by LDH release assay; format: cell-based; conditions: NIH3T3, 48 h
# HeLa [2] = assay: Cytotoxicity against human HeLa cells after 48 hrs by LDH release assay; format: functional, cell-based
# MCF7 [3] = assay: Cytotoxicity against human MCF7 cells after 48 hrs by trypan blue exclusion assay; format: functional, cell-based; conditions: MCF7, 48 h
# MCF7 [4] = assay: Cytotoxicity against human MCF7 cells after 48 hrs by LDH release assay; format: functional, cell-based; conditions: MCF7, 48 h
# HeLa [5] = assay: Cytotoxicity against human HeLa cells after 48 hrs by trypan blue exclusion assay; format: functional, cell-based
# MCF7 [6] = assay: Cytotoxicity against human MCF7 cells after 48 hrs by MTT assay; format: functional, cell-based; conditions: MCF7, 48 h
# NIH3T3 [7] = assay: Cytotoxicity against mouse NIH/3T3 cells after 48 hrs by trypan blue exclusion assay; format: cell-based; conditions: NIH3T3, 48 h
# A549 [8] = assay: Cytotoxicity against human A549 cells after 48 hrs by LDH release assay; format: functional, cell-based; conditions: A549, 48 h
# A549 [9] = assay: Cytotoxicity against human A549 cells after 48 hrs by trypan blue exclusion assay; format: functional, cell-based; conditions: A549, 48 h
# HeLa [10] = assay: Cytotoxicity against human HeLa cells after 48 hrs by MTT assay; format: functional, cell-based
# A549 [11] = assay: Cytotoxicity against human A549 cells after 48 hrs by MTT assay; format: functional, cell-based; conditions: A549, 48 h
# NIH3T3 [12] = assay: Cytotoxicity against mouse NIH/3T3 cells after 48 hrs by MTT assay; format: cell-based; conditions: NIH3T3, 48 h
# Homo sapiens = species on record: Homo sapiens; assay: Induction of endonuclease activity in cytosolic fraction of human A549 cells assessed as increase in DNA lysis zone at 85 uM by SYBR green dye-based agarose gel electrophoresis
# A549 [13] = assay: Cell cycle arrest in human A549 cells assessed as accumulation at sub-G1 phase at IC50 after 16 hrs by propidium iodide staining-based flow cytometric method (reference value: 0.69%); format: functional
# A549 [14] = assay: Induction of apoptosis in human A549 cells assessed as late apoptotic cells at IC50 after 12 to 15 hrs by annexin-V-FITC/propidium iodide staining-based flow cytometric method (reference value: 14.3%); format: functional
# A549 [15] = assay: Cell cycle arrest in human A549 cells assessed as accumulation at G0/G1 phase at IC50 after 16 hrs by propidium iodide staining-based flow cytometric method (reference value: 70.8%); format: functional
# A549 [16] = assay: Induction of morphological changes in human A549 cells assessed as membrane blebbing by Giemsa staining-based microscopic method; format: functional, cell-based
# A549 [17] = assay: Cell cycle arrest in human A549 cells assessed as decrease in cell levels at G2/M phase at IC50 after 24 to 48 hrs by propidium iodide staining-based flow cytometric method; format: functional
# A549 [18] = assay: Induction of morphological changes in human A549 cells assessed as formation of apoptotic bodies by Giemsa staining-based microscopic method; format: functional, cell-based
# A549 [19] = assay: Downregulation of VEGF expression in human A549 cells by immunoblot method; format: functional, cell-based
# Chorioallantoic membrane [20] = assay: In vivo angioprotective activity in chicken CAM assessed as inhibition of recombinant VEGF165-induced neovuscularization at 1 mg/ml after 72 hrs; format: functional, Gallus gallus
# A549 [21] = assay: Induction of morphological changes in human A549 cells assessed as irregular shape by Giemsa staining-based microscopic method; format: functional, cell-based
# A549 [22] = assay: Cell cycle arrest in human A549 cells assessed as accumulation at S phase at IC50 after 16 hrs by propidium iodide staining-based flow cytometric method (reference value: 24.8%); format: functional
# A549 [23] = assay: Cell cycle arrest in human A549 cells assessed as accumulation at G2/M phase at IC50 after 16 hrs by propidium iodide staining-based flow cytometric method (reference value: 3.44%); format: functional
# A549 [24] = assay: Antiangiogenic activity in human A549 cells xenografted in chicken CAM assessed as reduction in recombinant VEGF165-induced MVD/HPF at 1 mg/ml measured on day 12 post fertilization by hematoxylin and eosin staining-based assay relative to control; format: functional; parameters: scale not given: the % may be the effect or the level left
# [25] = test system: Enterobacteria phage lambda; assay: Induction of lambda phage DNA fragmentation by agarose gel electrophoresis
# Chorioallantoic membrane [26] = assay: In vivo angioprotective activity in chicken CAM assessed as decrease in recombinant VEGF165-induced total vessel length at 1 mg/ml after 72 hrs; format: functional, Gallus gallus; parameters: scale not given: the % may be the effect or the level left
# A549 [27] = assay: Inhibition of migration of human A549 cells at 25 uM after 48 hrs by scratch wound assay relative to control; format: functional; conditions: A549, 48 h
# A549 [28] = assay: Cell cycle arrest in human A549 cells assessed as increase in accumulation at sub-G0 phase at IC50 after 48 hrs by propidium iodide staining-based flow cytometric method; format: functional
# A549 [29] = assay: Inhibition of migration of human A549 cells at 50 uM after 48 hrs by scratch wound assay relative to control; format: functional; conditions: A549, 48 h
# Chorioallantoic membrane [30] = assay: Ex vivo angioprotective activity in chicken CAM assessed as inhibition of recombinant VEGF165-induced neovuscularization at 1 mg/ml after 72 hrs; format: functional, tissue-based; conditions: Gallus gallus
# A549 [31] = assay: Induction of apoptosis in human A549 cells assessed as early apoptotic cells at IC50 after 12 to 15 hrs by annexin-V-FITC/propidium iodide staining-based flow cytometric method (reference value: 1.65%); format: functional
# A549 [32] = assay: Induction of apoptosis in human A549 cells assessed as live cells at IC50 after 12 to 15 hrs by annexin-V-FITC/propidium iodide staining-based flow cytometric method (reference value: 73.8%); format: functional
# A549 [33] = assay: Antitumor activity against human A549 cells xenografted in chicken CAM assessed as reduction in tumor progression at 1 mg/ml measured on day 12 post fertilization by hematoxylin and eosin staining-based assay relative to control; format: functional
# A549 [34] = assay: Antiangiogenic activity in human A549 cells xenografted in chicken CAM assessed as reduction in recombinant VEGF165-induced MVD/HPF measured on day 12 post fertilization by hematoxylin and eosin staining-based assay; format: functional, cell-based
# A549 [35] = assay: Induction of apoptosis in human A549 cells assessed as necrotic cells at IC50 after 12 to 15 hrs by annexin-V-FITC/propidium iodide staining-based flow cytometric method (reference value: 10.2%); format: functional
# A549 [36] = assay: Induction of apoptosis in human A549 cells assessed as caspase-3 activation by immunoblot method; format: functional, cell-based
# Chorioallantoic membrane [37] = assay: Ex vivo angioprotective activity in chicken CAM assessed as decrease in recombinant VEGF165-induced total vessel length at 1 mg/ml after 72 hrs; format: functional, tissue-based; parameters: scale not given: the % may be the effect or the level left; conditions: Gallus gallus
# A549 [38] = assay: Inhibition of colony formation of human A549 cells at 25 to 50 uM pretreated for 6 hrs followed by subsequent incubation for 12 days by crystal violet staining-based assay; format: functional, cell-based
# A549 [39] = assay: Cell cycle arrest in human A549 cells assessed as accumulation at G2/M phase after 16 hrs by propidium iodide staining-based flow cytometric method (reference value: 3.44%); format: functional
# A549 [40] = assay: Induction of apoptosis in human A549 cells assessed as cell condensation after 12 to 15 hrs by flow cytometric method; format: functional, cell-based
# A549 [41] = assay: Induction of apoptosis in human A549 cells assessed as early apoptotic cells after 12 to 15 hrs by annexin-V-FITC/propidium iodide staining-based flow cytometric method (reference value: 1.65%); format: functional
# A549 [42] = assay: Induction of apoptosis in human A549 cells assessed as formation of apoptotic bodies after 12 to 15 hrs by flow cytometric method; format: functional, cell-based
# A549 [43] = assay: Induction of apoptosis in human A549 cells assessed a late apoptotic cells after 12 to 15 hrs by annexin-V-FITC/propidium iodide staining-based flow cytometric method (reference value: 14.3%); format: functional
# A549 [44] = assay: Induction of apoptosis in human A549 cells assessed as live cells after 12 to 15 hrs by annexin-V-FITC/propidium iodide staining-based flow cytometric method (reference value: 73.8%); format: functional
# A549 [45] = assay: Cell cycle arrest in human A549 cells assessed as accumulation at S phase after 16 hrs by propidium iodide staining-based flow cytometric method (reference value: 24.8%); format: functional
# A549 [46] = assay: Cell cycle arrest in human A549 cells assessed as accumulation at sub-G1 phase after 16 hrs by propidium iodide staining-based flow cytometric method (reference value: 0.69%); format: functional
# A549 [47] = assay: Induction of apoptosis in human A549 cells assessed a necrotic cells after 12 to 15 hrs by annexin-V-FITC/propidium iodide staining-based flow cytometric method (reference value: 10.2%); format: functional
# A549 [48] = assay: Cell cycle arrest in human A549 cells assessed as accumulation at G0/G1 phase after 16 hrs by propidium iodide staining-based flow cytometric method (reference value: 70.8%); format: functional
smiles,measurement,setting,value
O=C(COc1c(F)cc(C(=O)c2ccc(F)cc2)cc1Cl)NNC(=O)c1ccc(=O)oc1,IC50,NIH3T3 [1],89.8 µM
same,IC50,HeLa [2],60.1 µM
same,IC50,MCF7 [3],62.2 µM
same,IC50,MCF7 [4],61.1 µM
same,IC50,HeLa [5],59.2 µM
same,IC50,MCF7 [6],63.2 µM
same,IC50,NIH3T3 [7],85.4 µM
same,IC50,A549 [8],60.2 µM
same,IC50,A549 [9],56.7 µM
same,IC50,HeLa [10],59.9 µM
same,IC50,A549 [11],58.8 µM
same,IC50,NIH3T3 [12],87.8 µM
Cc1ccc(C(=O)c2cc(F)c(OCC(=O)NNC(=O)c3cn(C)cn3)c(Cl)c2)cc1,Activity,Homo sapiens,Active
same,Activity,A549 [13],5.83%
same,Activity,A549 [14],48.4%
same,Activity,A549 [15],75.9%
same,IC50,NIH3T3 [1],94.9 µM
same,IC50,HeLa [2],10.4 µM
same,Activity,A549 [16],Active
same,Activity,A549 [17],Active
same,Activity,A549 [18],Active
same,Activity,A549 [19],Active
same,inhibition (INH),Chorioallantoic membrane [20],24%
same,Activity,A549 [21],Active
same,IC50,MCF7 [3],9.5 µM
same,IC50,MCF7 [4],9.4 µM
same,IC50,HeLa [5],10.2 µM
same,IC50,MCF7 [6],9.8 µM
same,Activity,A549 [22],16.7%
same,Activity,A549 [23],1.62%
same,Activity,A549 [24],86.2%
same,Activity,[25],Active
same,Activity,Chorioallantoic membrane [26],85%
same,inhibition at 25 µM,A549 [27],15.6%
same,IC50,NIH3T3 [7],93.8 µM
same,IC50,A549 [8],9.1 µM
same,Activity,A549 [28],Active
same,inhibition at 50 µM,A549 [29],78.8%
same,inhibition,Chorioallantoic membrane [30],26%
same,Activity,A549 [31],0.6%
same,Activity,A549 [32],33.5%
same,fold change (FC),A549 [33],1.7
same,Activity,A549 [34],Dose-dependent effect
same,Activity,A549 [35],17.4%
same,Activity,A549 [36],Active
same,Activity,Chorioallantoic membrane [37],85%
same,inhibition,A549 [38],Active
same,IC50,A549 [9],9.6 µM
same,IC50,HeLa [10],9.9 µM
same,IC50,A549 [11],8.8 µM
same,IC50,NIH3T3 [12],94.2 µM
CC[C@@]1(O)C(=O)OCc2c1cc1n(c2=O)Cc2cc3ccccc3nc2-1 [CAMPTOTHECIN],Activity,A549 [39],2.43%
same,Activity,A549 [40],Active
same,Activity,A549 [41],2.16%
same,Activity,A549 [42],Active
same,Activity,A549 [43],23.6%
same,Activity,A549 [44],65.1%
same,Activity,A549 [45],19.2%
same,Activity,A549 [46],19%
same,Activity,A549 [47],9.12%
same,Activity,A549 [48],59.4%
O=C(COc1ccc(C(=O)c2ccccc2)cc1)NNC(=O)c1ccc(=O)oc1,IC50,NIH3T3 [1],88.2 µM
same,IC50,HeLa [2],96.1 µM
same,IC50,MCF7 [3],92.9 µM
same,IC50,MCF7 [4],61.1 µM
same,IC50,HeLa [5],89.2 µM
same,IC50,MCF7 [6],93.2 µM
same,IC50,NIH3T3 [7],84.3 µM
same,IC50,A549 [8],90.9 µM
same,IC50,A549 [9],96.7 µM
same,IC50,HeLa [10],99.1 µM
same,IC50,A549 [11],98.8 µM
same,IC50,NIH3T3 [12],87.3 µM
Cn1cnc(C(=O)NNC(=O)COc2c(F)cc(C(=O)c3ccc(Cl)cc3)cc2Cl)c1,IC50,NIH3T3 [1],89.3 µM
same,IC50,HeLa [2],54.5 µM
same,IC50,MCF7 [3],47.3 µM
same,IC50,MCF7 [4],44.4 µM
same,IC50,HeLa [5],51.6 µM
same,IC50,MCF7 [6],43.1 µM
same,IC50,NIH3T3 [7],90.9 µM
same,IC50,A549 [8],45.8 µM
same,IC50,A549 [9],47.3 µM
same,IC50,A549 [11],49.1 µM
same,IC50,NIH3T3 [12],87.8 µM
